Experimental data as given in patent US20070135490A1, “Phenetanolamine derivatives” (priority 2003, published 2007).

Target: T1, human beta-2 receptor (Homo sapiens, UniProt P07550)
T1 construct: expressed in transfected cells; host or cells: Chinese hamster ovary cells (whole cells or membranes derived from them)
Assay: Chinese hamster ovary cells co-expressing the human receptor with a reporter gene, cAMP measurement in whole cells or membranes (Method 2)
Format: cell-based
Settings: CHO cells or membranes; for EC50: read-out: pEC50 at the human beta-2 receptor (converted)
Method: Potency of compounds of the invention at the human beta 2, 1 and 3 receptors was also determined using Chinese hamster ovary cells co-expressing the human receptor with a reporter gene. Studies were performed using either whole cells or membranes derived from those cells.
The three beta-receptors are coupled via the Gs G-protein to cause a simulation of adenylate cyclase resulting in increased levels of cAMP in the cell. For direct cAMP measurements either membranes or cells have been used with either the HitHunter enzyme fragment complementation kit (DiscoveRx) or the FP^2 fluorescence polarisation kit (Perkin Elmer) to quantify the levels of cAMP present. These assays provide a measure of agonist potency and intrinsic activity of the compounds at the various receptors. […]
In this assay the potency of compounds at the human beta-2 receptor is expressed as a pEC50 value. Compounds of examples 12-26, 28-50 and 52-64 had pEC50 values greather than 6. […] No result is available for the compound of example 51.

Row | EC50 | Compound | pEC50 at the human beta-2 receptor
1 | < 1 µM | N#Cc1cccc(COCCOCc2cccc(CCNC[C@H](O)c3ccc(O)c(CO)c3)c2)c1 [Example 13, Formic acid compound with 3-{[2-({3-[2-({(2R)-2-hydroxy-2-[4-hydroxy-3-(hydroxymethyl)phenyl]ethyl}amino)ethyl]benzyl}oxy)ethoxy]methyl}benzonitrile (1:1)] | –
2 | < 1 µM | N#Cc1ccc(COCc2cccc(CCNC[C@H](O)c3ccc(O)c(CO)c3)c2)cc1 [Example 43, Formic acid compound with 4-[({3-[2-({(2R)-2-hydroxy-2-[4-hydroxy-3-(hydroxymethyl)phenyl]ethyl}amino)ethyl]benzyl}oxy)methyl]benzonitrile (1:1)] | –
3 | < 1 µM | Cc1cc(C)cc(COCCOCc2cccc(CCNC[C@H](O)c3ccc(O)c(CO)c3)c2)c1 [Example 16, Formic acid compound with 4-[(1R)-2-({2-[3-({2-[(3,5-dimethylbenzyl)oxy]ethoxy}methyl)phenyl]ethyl}amino)-1-hydroxyethyl]-2-(hydroxymethyl)phenol (1:1)] | –
4 | < 1 µM | OCc1cc([C@@H](O)CNCCc2cccc(COCCCc3cccc(O)c3)c2)ccc1O [Example 28, Formic acid compound with 4-((1R)-1-hydroxy-2-{[2-(3-{[3-(3-hydroxyphenyl)propoxy]methyl}phenyl)ethyl]amino}ethyl)-2-(hydroxymethyl)phenol (1:1)] | –
5 | < 1 µM | N#Cc1cccc(CCCCOCc2cccc(CCNC[C@H](O)c3ccc(O)c(CO)c3)c2)c1 [Example 37, Formic acid compound with 3-[4-({3-[2-({(2R)-2-hydroxy-2-[4-hydroxy-3-(hydroxymethyl)phenyl]ethyl}amino)ethyl]benzyl}oxy)butyl]benzonitrile (1:1)] | –
6 | – | Formic acid compound with 4-((1R)-1-hydroxy-2-{[2-(3-{[3-(2-hydroxyphenyl)propoxy]methyl}phenyl)ethyl]amino}ethyl)-2-(hydroxymethyl)phenol (1:1) [Example 27] | less than 6
7 | < 1 µM | NS(=O)(=O)c1cccc(CCCCOCc2cccc(CCNC[C@H](O)c3ccc(O)c(CO)c3)c2)c1 [Example 12, Formic acid compound with 3-[4-({3-[2-({(2R)-2-Hydroxy-2-[4-hydroxy-3-(hydroxymethyl)phenyl]ethyl}amino)ethyl]benzyl}oxy)butyl]benzenesulfonamide (1:1)] | –
8 | < 1 µM | CS(=O)(=O)c1ccc(CCCOCc2cccc(CCNC[C@H](O)c3ccc(O)c(CO)c3)c2)cc1 [Example 23, Formic acid compound with 2-(hydroxymethyl)-4-[(1R)-1-hydroxy-2-({2-[3-({3-[4-(methylsulfonyl)phenyl]propoxy}methyl)phenyl]ethyl}amino)ethyl]phenol (1:1)] | –
9 | < 1 µM | CS(=O)(=O)c1ccc(COCc2cccc(CCNC[C@H](O)c3ccc(O)c(CO)c3)c2)cc1 [Example 24, Formic acid compound with 2-(hydroxymethyl)-4-[(1R)-1-hydroxy-2-({2-[3-({[4-(methylsulfonyl)benzyl]oxy}methyl)phenyl]ethyl}amino)ethyl]phenol (1:1)] | –

Row | Compound | EC50 | pEC50 at the human beta-2 receptor
10 | OCc1cc([C@@H](O)CNCCc2cccc(COCCCCc3cccc(O)c3)c2)ccc1O [Example 19, Formic acid compound with 4-((1R)-1-hydroxy-2-{[2-(3-{[4-(3-hydroxyphenyl)butoxy]methyl}phenyl)ethyl]amino}ethyl)-2-(hydroxymethyl)phenol (1:1)] | < 1 µM | –
11 | O=S(=O)(c1ccc(CCCCOCc2cccc(CCNC[C@H](O)c3ccc(O)c(CO)c3)c2)cc1)C1CCCC1 [Example 29, Formic acid compound with 4-[(1R)-2-({2-[3-({4-[4-(cyclopentylsulfonyl)phenyl]butoxy}methyl)phenyl]ethyl}amino)-1-hydroxyethyl]-2-(hydroxymethyl)phenol (1:1)] | < 1 µM | –
